In the assay the test system is theta power. Nature of the assay: EEG study on theta power modulation by THC and Lion's Mane extract (randomized, double-blind, crossover). It is filed as in vivo, human. To be noted: for global theta power change: 16-node EEG, normalized theta power. On the procedure: Participants: 10 healthy adults (18-45 years) in a randomized, double-blind, crossover trial.
Treatments: Baseline (placebo), Lion's Mane (2.2 g), THC (5 mg), THC+Lion's Mane.
Administration: Nanoemulsion beverages for rapid absorption.
EEG recordings: 16-node headset measured theta power at 0 min (baseline), 15 min, and 30 min.
Normalized theta power analyzed via mixed-effects ANOVA.
Topographic mapping for spatial changes.

In the case of `CCCCCc1cc(O)c2c(c1)OC(C)(C)[C@@H]1CCC(C)=C[C@@H]21` [THC, Δ9-tetrahydrocannabinol], the “global theta power change” value (15 min after nanoemulsion beverage) is listed as −8.9% and the “global theta power change” value (30 min after nanoemulsion beverage) was found to be 19.4%. In addition, the “theta power change, frontal nodes F3, F7 and FC5” value (15 minutes) is recorded as −14.6%. Moreover, under “30 minutes”, the “theta power change, frontal nodes” value is reported as 33.2%. Besides, where the note is “nodes P3, P4, O1, O2”, the “theta power change, parietal (P3, P4) and occipital (O1, O2) nodes” value is listed as 4-8%.

The record behind these values is patent publication US20250325610A1, “Compositions Containing Cannabis and Hericium Extracts for the Improvement of Mental Health and Treatment of CNS Disorders” (DrinkBrez, LLC, priority 2024, published 2025).
